Measurements published in the kinase profiling compilation of Christmann-Franck et al. (2016).

Key:
Test in all cases: radiometric filter-binding kinase assay, Kinase HotSpot
Settings in all cases: compound 0.5 µM; ATP 10 µM
STK10 (human) = STK10 (human) (UniProt O94804)
GRK7 (human) = GRK7 (human) (UniProt Q8WTQ7)
GSK3B (human) = GSK3B (human) (UniProt P49841)
STK11 (human) = STK11 (human) (UniProt Q15831)
CDK6 CCND1 (human) = CDK6 CCND1 (human) (UniProt Q00534+P24385)
ZAP70 (human) = ZAP70 (human) (UniProt P43403)
ZAP70 (human), sequence (P43403 whole entry, looked up): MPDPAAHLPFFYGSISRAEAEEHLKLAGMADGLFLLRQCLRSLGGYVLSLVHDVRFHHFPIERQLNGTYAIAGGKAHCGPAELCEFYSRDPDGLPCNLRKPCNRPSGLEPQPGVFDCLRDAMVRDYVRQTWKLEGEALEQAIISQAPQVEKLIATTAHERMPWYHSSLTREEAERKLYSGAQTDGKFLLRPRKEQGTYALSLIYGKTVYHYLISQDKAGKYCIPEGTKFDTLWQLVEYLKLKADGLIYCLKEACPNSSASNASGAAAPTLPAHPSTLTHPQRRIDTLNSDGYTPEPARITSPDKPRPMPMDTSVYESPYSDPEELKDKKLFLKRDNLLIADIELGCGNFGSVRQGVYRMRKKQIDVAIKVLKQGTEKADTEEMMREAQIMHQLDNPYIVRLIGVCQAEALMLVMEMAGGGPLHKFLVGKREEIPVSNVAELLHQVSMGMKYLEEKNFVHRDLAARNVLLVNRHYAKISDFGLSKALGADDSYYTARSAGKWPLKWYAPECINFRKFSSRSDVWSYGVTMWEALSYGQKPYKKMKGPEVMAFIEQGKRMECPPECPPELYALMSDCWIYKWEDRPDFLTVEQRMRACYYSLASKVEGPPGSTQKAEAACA

VRK1 (human) = VRK1 (human) (UniProt Q99986)
VRK1 (human), sequence (Q99986 whole entry, looked up): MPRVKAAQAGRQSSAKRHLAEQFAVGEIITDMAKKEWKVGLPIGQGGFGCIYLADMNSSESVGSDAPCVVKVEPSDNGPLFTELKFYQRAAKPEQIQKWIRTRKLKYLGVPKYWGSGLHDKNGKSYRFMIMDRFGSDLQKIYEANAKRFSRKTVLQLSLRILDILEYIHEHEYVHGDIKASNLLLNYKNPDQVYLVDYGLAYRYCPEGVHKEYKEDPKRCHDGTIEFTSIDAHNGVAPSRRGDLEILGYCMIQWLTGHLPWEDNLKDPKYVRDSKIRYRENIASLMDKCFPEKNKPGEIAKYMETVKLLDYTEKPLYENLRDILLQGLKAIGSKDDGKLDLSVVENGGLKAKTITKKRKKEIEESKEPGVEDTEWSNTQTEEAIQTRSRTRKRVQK

MST4 (human) = MST4 (human) (UniProt Q9P289)
RPS6KA5 KD2 (human) = RPS6KA5 KD2 (human) (UniProt O75582)
FLT3 (human) = FLT3 (human) (UniProt P36888)
PAK6 (human) = PAK6 (human) (UniProt Q9NQU5)
TAOK2 (human) = TAOK2 (human) (UniProt Q9UL54)
MLTK (human) = MLTK (human) (UniProt Q9NYL2)
MLTK (human), sequence (Q9NYL2 whole entry, looked up): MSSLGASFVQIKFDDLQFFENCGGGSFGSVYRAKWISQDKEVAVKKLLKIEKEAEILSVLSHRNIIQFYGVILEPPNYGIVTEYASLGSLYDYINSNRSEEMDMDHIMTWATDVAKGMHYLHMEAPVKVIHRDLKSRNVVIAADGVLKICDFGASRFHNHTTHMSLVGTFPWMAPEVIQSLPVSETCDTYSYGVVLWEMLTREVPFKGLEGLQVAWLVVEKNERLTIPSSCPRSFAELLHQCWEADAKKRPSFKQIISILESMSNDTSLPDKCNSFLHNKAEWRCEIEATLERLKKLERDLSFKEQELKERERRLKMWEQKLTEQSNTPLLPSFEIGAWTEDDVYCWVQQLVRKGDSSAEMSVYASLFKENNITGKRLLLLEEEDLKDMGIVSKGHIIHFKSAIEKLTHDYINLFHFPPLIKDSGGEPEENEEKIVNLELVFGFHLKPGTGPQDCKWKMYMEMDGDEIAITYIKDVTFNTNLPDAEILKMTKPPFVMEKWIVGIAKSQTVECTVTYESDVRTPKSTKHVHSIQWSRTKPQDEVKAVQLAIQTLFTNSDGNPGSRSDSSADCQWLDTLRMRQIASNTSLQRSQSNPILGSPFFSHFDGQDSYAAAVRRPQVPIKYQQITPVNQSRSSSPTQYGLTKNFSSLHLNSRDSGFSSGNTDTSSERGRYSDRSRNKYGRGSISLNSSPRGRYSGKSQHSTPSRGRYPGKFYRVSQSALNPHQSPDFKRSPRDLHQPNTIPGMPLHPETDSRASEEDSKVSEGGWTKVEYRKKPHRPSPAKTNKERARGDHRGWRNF

MAP3K9 (human) = MAP3K9 (human) (UniProt P80192)
CDK1 CCNB1 (human) = CDK1 CCNB1 (human) (UniProt P06493+P14635)
IRAK1 (human) = IRAK1 (human) (UniProt P51617)
RAF1 (human) = RAF1 (human) (UniProt P04049)
RPS6KB2 (human) = RPS6KB2 (human) (UniProt Q9UBS0)
CDK1 CCNA2 (human) = CDK1 CCNA2 (human) (UniProt P06493+P20248)
EPHA2 (human) = EPHA2 (human) (UniProt P29317)
HCK (human) = HCK (human) (UniProt P08631)
SRPK3 (human) = SRPK3 (human) (UniProt Q9UPE1)
CSNK1E (human) = CSNK1E (human) (UniProt P49674)
PIM2 (human) = PIM2 (human) (UniProt Q9P1W9)
SRPK2 (human) = SRPK2 (human) (UniProt P78362)
ACVRL1 (human) = ACVRL1 (human) (UniProt P37023)
STK17A (human) = STK17A (human) (UniProt Q9UEE5)
ADRBK2 (human) = ADRBK2 (human) (UniProt P35626)
PKN1 (human) = PKN1 (human) (UniProt Q16512)
PRKCB1 (human) = PRKCB1 (human) (UniProt P05771)
PTK2 (human) = PTK2 (human) (UniProt Q05397)
BRSK2 (human) = BRSK2 (human) (UniProt Q8IWQ3)
LTK (human) = LTK (human) (UniProt P29376)
PRKD1 (human) = PRKD1 (human) (UniProt Q15139)
LIMK1 (human) = LIMK1 (human) (UniProt P53667)
CAMKK1 (human) = CAMKK1 (human) (UniProt Q8N5S9)
CDK9 CCNK (human) = CDK9 CCNK (human) (UniProt O75909+P50750)
EPHA7 (human) = EPHA7 (human) (UniProt Q15375)
FER (human) = FER (human) (UniProt P16591)
FER (human), sequence (P16591 whole entry, looked up): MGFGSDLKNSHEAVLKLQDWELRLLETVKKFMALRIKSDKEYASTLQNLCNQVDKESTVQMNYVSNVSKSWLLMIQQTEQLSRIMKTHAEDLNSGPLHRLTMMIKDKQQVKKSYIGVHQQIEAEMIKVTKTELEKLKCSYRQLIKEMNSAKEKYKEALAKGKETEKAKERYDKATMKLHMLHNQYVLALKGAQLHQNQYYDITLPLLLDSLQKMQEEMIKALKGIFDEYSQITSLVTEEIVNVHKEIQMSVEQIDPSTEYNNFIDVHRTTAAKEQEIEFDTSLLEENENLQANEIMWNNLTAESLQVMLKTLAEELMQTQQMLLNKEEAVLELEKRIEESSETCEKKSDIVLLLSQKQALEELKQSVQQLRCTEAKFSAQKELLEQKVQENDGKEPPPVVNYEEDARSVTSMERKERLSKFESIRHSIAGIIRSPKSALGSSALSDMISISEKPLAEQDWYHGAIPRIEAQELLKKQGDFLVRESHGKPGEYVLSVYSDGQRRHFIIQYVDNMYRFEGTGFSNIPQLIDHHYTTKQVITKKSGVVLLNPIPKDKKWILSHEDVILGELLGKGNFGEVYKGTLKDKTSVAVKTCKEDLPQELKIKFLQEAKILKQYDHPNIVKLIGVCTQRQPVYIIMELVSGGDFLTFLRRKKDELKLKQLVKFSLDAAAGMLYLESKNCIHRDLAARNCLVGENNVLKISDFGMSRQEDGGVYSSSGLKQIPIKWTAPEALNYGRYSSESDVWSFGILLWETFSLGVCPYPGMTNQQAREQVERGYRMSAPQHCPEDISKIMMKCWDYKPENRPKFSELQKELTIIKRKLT

PRKCI (human) = PRKCI (human) (UniProt P41743)
PRKCI (human), sequence (P41743 whole entry, looked up): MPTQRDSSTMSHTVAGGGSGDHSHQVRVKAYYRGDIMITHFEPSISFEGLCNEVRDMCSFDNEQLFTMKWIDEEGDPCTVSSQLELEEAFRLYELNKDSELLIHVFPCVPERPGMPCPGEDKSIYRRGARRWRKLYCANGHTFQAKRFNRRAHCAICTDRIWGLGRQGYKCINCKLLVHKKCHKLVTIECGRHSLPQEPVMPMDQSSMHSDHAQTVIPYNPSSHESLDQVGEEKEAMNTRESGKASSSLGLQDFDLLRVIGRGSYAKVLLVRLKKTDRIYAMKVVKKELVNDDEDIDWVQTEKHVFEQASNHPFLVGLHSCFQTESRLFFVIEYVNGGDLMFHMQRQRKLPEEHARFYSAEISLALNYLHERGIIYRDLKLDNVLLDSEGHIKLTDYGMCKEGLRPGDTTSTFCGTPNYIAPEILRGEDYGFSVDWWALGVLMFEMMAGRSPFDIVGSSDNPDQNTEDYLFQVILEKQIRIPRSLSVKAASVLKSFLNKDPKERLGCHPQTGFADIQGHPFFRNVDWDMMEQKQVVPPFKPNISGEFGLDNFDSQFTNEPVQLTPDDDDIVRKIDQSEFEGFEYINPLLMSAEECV

NUAK1 (human) = NUAK1 (human) (UniProt O60285)
NUAK1 (human), sequence (O60285 whole entry, looked up): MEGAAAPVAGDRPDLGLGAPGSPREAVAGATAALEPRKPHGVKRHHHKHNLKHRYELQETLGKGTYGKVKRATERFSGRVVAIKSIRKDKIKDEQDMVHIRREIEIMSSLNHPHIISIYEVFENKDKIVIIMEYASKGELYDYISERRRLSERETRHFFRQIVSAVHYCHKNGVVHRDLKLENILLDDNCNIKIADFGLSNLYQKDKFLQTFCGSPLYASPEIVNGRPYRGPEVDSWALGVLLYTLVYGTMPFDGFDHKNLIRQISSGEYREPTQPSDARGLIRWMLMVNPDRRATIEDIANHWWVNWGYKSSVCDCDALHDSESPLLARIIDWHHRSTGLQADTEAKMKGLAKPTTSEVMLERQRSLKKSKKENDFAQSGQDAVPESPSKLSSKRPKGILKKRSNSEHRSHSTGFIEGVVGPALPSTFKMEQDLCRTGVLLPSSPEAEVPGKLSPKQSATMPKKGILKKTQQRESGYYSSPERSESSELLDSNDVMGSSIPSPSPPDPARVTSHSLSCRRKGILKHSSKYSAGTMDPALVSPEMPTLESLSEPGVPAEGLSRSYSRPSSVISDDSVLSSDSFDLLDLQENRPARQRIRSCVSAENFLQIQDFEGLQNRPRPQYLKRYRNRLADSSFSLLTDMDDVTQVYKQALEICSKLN

TAOK1 (human) = TAOK1 (human) (UniProt Q7L7X3)
TAOK1 (human), sequence (Q7L7X3 whole entry, looked up): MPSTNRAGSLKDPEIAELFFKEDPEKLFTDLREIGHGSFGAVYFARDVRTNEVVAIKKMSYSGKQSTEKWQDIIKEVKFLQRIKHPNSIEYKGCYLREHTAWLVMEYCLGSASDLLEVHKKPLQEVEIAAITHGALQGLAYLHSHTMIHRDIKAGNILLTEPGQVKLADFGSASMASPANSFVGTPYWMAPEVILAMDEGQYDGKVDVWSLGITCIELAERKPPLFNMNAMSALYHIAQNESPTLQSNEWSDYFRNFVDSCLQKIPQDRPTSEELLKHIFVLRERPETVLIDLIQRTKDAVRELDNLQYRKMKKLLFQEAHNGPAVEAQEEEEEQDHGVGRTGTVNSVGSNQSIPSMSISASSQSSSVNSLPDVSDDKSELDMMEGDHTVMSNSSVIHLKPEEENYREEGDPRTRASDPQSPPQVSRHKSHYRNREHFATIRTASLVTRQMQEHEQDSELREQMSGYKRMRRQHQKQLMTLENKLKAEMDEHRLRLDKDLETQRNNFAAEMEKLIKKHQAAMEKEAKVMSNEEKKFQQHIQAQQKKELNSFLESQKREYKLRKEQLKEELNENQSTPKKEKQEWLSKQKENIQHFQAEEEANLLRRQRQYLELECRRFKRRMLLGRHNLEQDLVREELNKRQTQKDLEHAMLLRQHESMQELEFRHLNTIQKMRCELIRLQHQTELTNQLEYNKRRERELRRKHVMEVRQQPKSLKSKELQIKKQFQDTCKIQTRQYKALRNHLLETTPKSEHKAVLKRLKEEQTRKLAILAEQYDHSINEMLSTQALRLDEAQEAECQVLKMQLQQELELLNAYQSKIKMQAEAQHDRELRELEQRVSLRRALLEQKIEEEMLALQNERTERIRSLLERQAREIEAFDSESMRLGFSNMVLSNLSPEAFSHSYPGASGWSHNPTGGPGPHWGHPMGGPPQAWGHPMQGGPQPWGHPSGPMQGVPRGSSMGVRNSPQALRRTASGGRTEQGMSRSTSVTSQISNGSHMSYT

SMILES: O=c1cc(N2CCNCC2)oc2c(-c3ccccc3)cccc12
- residual activity (STK10 (human)): 94.3%
- residual activity (GRK7 (human)): 114%
- residual activity (GSK3B (human)): 97%
- residual activity (STK11 (human)): 101%
- residual activity (CDK6 CCND1 (human)): 94.6%
- residual activity (ZAP70 (human)): 102%
- residual activity (VRK1 (human)): 92.1%
- residual activity (MST4 (human)): 96.3%
- residual activity (RPS6KA5 KD2 (human)): 99.1%
- residual activity (FLT3 (human)): 108%
- residual activity (PAK6 (human)): 102%
- residual activity (TAOK2 (human)): 98.3%
- residual activity (MLTK (human)): 103%
- residual activity (MAP3K9 (human)): 101%
- residual activity (CDK1 CCNB1 (human)): 106%
- residual activity (IRAK1 (human)): 162%
- residual activity (RAF1 (human)): 94.2%
- residual activity (RPS6KB2 (human)): 91%
- residual activity (CDK1 CCNA2 (human)): 84.8%
- residual activity (EPHA2 (human)): 108%
- residual activity (HCK (human)): 93.7%
- residual activity (SRPK3 (human)): 94.4%
- residual activity (CSNK1E (human)): 101%
- residual activity (PIM2 (human)): 121%
- residual activity (SRPK2 (human)): 105%
- residual activity (ACVRL1 (human)): 106%
- residual activity (STK17A (human)): 98.4%
- residual activity (ADRBK2 (human)): 97.4%
- residual activity (PKN1 (human)): 99.6%
- residual activity (PRKCB1 (human)): 91.6%
- residual activity (PTK2 (human)): 99%
- residual activity (BRSK2 (human)): 103%
- residual activity (LTK (human)): 96.9%
- residual activity (PRKD1 (human)): 91.9%
- residual activity (LIMK1 (human)): 108%
- residual activity (CAMKK1 (human)): 105%
- residual activity (CDK9 CCNK (human)): 94.2%
- residual activity (EPHA7 (human)): 102%
- residual activity (FER (human)): 99.2%
- residual activity (PRKCI (human)): 105%
- residual activity (NUAK1 (human)): 95.5%
- residual activity (TAOK1 (human)): 90.8%
